Data: article PMC4457528, “Identification of Novel Small Molecule Inhibitors of Oncogenic RET Kinase” (PLoS ONE, 2015)
Read-outs that look alike come from different tables or passages of the source.

What was measured:
Experiment in all cases: KinomeScan kinase panel, single concentration 10 µM
Assay type in all cases: binding
KinomeScan kinase panel [1] = biological target: T1, KinomeScan kinase panel (Homo sapiens, UniProt Q9P289); conditions: MST4, 10 µM; read-out: score (%)
T1 construct: purchased DiscoveRx (KinomeScan)

KinomeScan kinase panel [2] = biological target: T2, KinomeScan kinase panel (Homo sapiens, UniProt Q9HBH9); conditions: MKNK2, 10 µM; read-out: score (%)
T2 construct: purchased DiscoveRx (KinomeScan)

KinomeScan kinase panel [3] = biological target: T3, KinomeScan kinase panel (Homo sapiens, UniProt Q12852); conditions: DLK, 10 µM
T3 construct: purchased DiscoveRx (KinomeScan)
T3 sequence (Q12852 1-859): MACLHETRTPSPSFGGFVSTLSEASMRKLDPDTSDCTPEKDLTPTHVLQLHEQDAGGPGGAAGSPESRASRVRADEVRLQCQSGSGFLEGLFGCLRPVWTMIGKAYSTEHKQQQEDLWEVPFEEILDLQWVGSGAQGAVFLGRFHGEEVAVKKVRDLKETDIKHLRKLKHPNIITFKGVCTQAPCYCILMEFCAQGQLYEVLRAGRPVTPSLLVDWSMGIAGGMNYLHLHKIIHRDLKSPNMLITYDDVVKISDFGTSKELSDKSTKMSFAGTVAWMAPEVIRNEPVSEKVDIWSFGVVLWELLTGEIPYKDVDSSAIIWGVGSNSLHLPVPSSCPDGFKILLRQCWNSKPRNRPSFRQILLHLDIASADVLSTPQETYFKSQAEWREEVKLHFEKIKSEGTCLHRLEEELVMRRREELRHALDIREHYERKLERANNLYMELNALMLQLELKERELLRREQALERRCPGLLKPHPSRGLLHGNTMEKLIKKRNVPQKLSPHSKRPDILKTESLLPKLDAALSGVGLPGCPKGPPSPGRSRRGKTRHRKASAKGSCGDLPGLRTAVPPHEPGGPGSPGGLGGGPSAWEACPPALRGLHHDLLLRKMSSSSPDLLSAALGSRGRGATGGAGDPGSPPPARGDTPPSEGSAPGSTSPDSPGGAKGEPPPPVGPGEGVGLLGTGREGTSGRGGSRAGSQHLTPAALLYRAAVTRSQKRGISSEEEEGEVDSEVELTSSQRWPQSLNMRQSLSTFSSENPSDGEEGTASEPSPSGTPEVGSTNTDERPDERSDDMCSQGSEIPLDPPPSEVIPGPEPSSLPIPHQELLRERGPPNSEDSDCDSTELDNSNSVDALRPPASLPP

KinomeScan kinase panel [4] = biological target: T4, KinomeScan kinase panel (Homo sapiens, UniProt P22455); conditions: FGFR4, 10 µM; read-out: score (%)
T4 construct: purchased DiscoveRx (KinomeScan)

KinomeScan kinase panel [5] = biological target: T5, KinomeScan kinase panel (Homo sapiens, UniProt O15111); conditions: IKK-alpha, 10 µM; read-out: score (%)
T5 construct: purchased DiscoveRx (KinomeScan)
T5 sequence (O15111 1-745): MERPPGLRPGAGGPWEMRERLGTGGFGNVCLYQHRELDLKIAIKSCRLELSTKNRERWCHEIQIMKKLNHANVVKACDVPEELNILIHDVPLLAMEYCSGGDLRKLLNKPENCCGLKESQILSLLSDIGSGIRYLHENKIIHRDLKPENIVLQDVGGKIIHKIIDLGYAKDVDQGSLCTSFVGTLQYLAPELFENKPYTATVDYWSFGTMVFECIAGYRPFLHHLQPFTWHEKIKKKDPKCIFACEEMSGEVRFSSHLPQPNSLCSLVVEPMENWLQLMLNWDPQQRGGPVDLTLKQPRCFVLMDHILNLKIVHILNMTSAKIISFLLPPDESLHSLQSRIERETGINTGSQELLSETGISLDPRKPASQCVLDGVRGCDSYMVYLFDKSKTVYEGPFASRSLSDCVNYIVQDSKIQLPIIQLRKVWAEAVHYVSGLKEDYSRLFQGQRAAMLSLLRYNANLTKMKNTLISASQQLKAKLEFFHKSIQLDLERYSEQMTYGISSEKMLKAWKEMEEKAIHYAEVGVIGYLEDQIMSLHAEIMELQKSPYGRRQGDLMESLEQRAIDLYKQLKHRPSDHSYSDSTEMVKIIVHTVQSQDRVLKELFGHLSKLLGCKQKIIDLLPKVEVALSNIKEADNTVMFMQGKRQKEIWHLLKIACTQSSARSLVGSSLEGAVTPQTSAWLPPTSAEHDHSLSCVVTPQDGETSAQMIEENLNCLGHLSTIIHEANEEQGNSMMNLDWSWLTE

KinomeScan kinase panel [6] = biological target: T6, KinomeScan kinase panel (Homo sapiens, UniProt O60674); conditions: 10 µM
T6 construct: purchased DiscoveRx (KinomeScan)

KinomeScan kinase panel [7] = biological target: T7, KinomeScan kinase panel (Homo sapiens, UniProt Q14289); conditions: read-out: score (%)
T7 construct: purchased DiscoveRx (KinomeScan)

KinomeScan kinase panel [8] = biological target: T8, KinomeScan kinase panel (Homo sapiens, UniProt Q8IVH8); conditions: MAP4K3, 10 µM
T8 construct: purchased DiscoveRx (KinomeScan)
T8 sequence (Q8IVH8 1-894): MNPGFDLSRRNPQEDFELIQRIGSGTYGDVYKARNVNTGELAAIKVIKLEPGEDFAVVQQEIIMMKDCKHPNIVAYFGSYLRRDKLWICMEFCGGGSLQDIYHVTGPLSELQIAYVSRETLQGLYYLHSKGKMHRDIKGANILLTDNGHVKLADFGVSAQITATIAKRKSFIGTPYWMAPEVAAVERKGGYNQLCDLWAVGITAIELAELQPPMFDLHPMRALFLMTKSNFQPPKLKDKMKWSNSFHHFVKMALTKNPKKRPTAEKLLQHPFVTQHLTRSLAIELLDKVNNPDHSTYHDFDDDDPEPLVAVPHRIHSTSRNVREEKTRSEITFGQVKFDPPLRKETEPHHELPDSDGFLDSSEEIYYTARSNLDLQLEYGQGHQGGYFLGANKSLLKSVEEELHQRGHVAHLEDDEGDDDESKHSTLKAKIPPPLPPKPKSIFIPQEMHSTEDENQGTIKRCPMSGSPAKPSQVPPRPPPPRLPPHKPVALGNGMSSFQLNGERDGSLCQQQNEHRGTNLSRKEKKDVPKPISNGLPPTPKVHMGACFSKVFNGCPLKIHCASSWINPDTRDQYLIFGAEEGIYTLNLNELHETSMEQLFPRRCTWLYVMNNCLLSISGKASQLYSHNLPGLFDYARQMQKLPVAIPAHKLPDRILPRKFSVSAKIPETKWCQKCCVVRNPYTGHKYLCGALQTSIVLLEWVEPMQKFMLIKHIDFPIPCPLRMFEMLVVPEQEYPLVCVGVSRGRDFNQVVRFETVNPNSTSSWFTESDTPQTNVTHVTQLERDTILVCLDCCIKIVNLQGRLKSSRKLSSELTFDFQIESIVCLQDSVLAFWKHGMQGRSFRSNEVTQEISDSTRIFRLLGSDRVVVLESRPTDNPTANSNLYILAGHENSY

T4 sequence (P22455 22-802): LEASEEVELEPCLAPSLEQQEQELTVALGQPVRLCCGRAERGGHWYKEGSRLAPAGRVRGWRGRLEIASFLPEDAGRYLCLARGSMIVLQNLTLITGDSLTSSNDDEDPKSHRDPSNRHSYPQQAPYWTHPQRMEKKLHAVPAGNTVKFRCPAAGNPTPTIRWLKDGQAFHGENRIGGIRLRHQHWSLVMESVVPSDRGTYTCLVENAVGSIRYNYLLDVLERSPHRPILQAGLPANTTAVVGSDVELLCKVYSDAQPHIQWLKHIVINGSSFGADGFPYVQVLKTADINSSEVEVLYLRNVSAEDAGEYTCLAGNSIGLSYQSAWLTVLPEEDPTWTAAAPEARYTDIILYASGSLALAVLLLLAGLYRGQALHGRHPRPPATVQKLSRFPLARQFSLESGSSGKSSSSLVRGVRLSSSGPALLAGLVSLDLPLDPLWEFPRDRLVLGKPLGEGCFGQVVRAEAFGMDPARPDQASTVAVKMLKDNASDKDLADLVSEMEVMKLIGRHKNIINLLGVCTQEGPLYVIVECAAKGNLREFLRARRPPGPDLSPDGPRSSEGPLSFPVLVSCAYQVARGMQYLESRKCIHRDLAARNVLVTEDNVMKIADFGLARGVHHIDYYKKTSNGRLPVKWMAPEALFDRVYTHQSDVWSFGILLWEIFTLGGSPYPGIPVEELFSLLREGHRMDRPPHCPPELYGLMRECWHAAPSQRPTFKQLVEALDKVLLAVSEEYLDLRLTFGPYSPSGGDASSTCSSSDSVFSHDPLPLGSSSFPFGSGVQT
T2 sequence (Q9HBH9 whole entry): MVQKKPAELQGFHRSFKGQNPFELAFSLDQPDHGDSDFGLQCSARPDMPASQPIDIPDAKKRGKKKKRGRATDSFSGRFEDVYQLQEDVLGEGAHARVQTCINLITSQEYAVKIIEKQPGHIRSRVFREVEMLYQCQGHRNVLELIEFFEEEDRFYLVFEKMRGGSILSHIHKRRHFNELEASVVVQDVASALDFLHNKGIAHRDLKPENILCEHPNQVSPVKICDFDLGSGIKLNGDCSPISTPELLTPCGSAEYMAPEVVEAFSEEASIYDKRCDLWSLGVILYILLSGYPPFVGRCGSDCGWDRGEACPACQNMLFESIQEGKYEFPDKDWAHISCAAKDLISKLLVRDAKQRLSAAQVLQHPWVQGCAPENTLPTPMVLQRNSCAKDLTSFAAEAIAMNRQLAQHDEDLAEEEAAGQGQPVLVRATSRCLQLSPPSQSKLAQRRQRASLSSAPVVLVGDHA
T6 sequence (O60674 whole entry): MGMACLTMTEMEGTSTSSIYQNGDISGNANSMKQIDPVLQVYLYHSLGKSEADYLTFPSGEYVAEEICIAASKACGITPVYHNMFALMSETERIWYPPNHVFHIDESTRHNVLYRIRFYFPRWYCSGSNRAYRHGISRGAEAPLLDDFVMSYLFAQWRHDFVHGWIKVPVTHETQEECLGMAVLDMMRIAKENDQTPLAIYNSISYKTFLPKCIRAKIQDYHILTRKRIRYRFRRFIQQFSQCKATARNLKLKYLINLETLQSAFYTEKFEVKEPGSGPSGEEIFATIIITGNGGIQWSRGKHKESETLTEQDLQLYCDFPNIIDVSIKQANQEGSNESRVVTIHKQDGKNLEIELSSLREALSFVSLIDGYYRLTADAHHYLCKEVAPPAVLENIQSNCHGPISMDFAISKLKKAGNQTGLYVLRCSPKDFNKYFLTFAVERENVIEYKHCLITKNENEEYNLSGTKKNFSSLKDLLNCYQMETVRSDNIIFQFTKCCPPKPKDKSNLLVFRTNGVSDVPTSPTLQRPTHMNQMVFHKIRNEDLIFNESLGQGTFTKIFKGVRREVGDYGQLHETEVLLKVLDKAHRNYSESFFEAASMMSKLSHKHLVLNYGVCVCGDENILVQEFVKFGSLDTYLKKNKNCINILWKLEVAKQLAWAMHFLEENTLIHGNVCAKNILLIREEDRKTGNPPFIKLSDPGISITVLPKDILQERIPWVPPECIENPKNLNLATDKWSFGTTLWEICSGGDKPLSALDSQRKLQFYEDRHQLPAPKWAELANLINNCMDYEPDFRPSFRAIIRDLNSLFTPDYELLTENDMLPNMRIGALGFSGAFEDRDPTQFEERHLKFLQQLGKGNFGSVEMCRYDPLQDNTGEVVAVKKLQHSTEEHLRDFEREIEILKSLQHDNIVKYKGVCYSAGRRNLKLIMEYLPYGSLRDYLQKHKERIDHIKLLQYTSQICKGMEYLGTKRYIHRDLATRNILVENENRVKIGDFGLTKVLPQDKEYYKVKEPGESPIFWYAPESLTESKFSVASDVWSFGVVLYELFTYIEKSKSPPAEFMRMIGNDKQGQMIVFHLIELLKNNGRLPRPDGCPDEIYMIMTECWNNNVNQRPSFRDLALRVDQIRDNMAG
T1 sequence (Q9P289 whole entry): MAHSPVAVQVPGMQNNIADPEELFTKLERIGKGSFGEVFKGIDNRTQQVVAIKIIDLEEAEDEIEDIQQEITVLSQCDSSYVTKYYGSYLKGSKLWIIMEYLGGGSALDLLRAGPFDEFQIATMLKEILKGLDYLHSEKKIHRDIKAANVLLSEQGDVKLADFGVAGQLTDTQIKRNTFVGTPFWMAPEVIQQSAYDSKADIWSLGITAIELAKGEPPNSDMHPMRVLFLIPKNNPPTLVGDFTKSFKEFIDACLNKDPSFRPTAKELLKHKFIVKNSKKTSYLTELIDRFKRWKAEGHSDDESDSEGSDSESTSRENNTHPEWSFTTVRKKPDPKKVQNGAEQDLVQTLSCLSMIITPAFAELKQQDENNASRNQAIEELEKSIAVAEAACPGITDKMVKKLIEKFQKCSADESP
T7 sequence (Q14289 whole entry): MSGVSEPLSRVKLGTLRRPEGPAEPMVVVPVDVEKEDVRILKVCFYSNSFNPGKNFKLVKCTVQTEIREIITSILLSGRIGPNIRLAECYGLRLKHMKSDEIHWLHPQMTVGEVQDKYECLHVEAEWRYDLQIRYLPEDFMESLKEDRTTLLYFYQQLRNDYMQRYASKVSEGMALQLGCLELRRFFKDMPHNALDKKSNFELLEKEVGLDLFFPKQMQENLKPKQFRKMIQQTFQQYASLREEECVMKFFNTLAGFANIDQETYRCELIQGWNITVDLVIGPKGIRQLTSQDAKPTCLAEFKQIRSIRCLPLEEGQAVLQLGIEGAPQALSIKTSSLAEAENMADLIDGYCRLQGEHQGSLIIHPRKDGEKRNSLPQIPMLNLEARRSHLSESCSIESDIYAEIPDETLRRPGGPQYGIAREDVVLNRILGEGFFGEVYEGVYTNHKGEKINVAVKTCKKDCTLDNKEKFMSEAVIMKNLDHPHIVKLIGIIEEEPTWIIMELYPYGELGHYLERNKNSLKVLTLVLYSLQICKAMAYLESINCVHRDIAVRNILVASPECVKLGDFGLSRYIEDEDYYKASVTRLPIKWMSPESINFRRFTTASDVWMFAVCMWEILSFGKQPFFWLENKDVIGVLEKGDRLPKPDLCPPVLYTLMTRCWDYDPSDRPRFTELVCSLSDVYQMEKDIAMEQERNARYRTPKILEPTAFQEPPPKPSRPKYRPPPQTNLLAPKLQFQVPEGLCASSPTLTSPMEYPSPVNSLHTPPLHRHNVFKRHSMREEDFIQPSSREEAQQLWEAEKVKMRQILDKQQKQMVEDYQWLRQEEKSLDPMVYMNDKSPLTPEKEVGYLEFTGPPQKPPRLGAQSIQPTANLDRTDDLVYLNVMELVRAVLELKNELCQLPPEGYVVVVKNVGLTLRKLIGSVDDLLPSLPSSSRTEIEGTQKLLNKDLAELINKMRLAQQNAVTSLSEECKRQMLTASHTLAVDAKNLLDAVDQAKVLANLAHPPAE

| SMILES | remaining binding at 10 µM (KinomeScan kinase panel [1]) | remaining binding at 10 µM (KinomeScan kinase panel [2]) | score (%) (KinomeScan kinase panel [3]) | remaining binding at 10 µM (KinomeScan kinase panel [4]) | remaining binding at 10 µM (KinomeScan kinase panel [5]) | score (%) (KinomeScan kinase panel [6]; JAK2(JH1domain-catalytic)) | remaining binding at 10 µM (KinomeScan kinase panel [7]; PYK2, 10 µM) | score (%) (KinomeScan kinase panel [8]) | score (%) (KinomeScan kinase panel [6]; JAK2(Kin.Dom.2)) | remaining binding at 10 µM (KinomeScan kinase panel [7]; PTK2B, 10 µM) | remaining binding at 10 µM (KinomeScan kinase panel [7]; kinase PYK2, 10 µM) |
| --- | --- | --- | --- | --- | --- | --- | --- | --- | --- | --- | --- |
| CCN1CCN(Cc2ccc(NC(=O)c3ccc(C)c(NC(=O)c4cncc(-c5cccs5)c4)c3)cc2C(F)(F)F)CC1 [ALW-II-41-27] | 12% | > 30% | 28% | 8.7% | 3.3% | 11% | 2.4% | 20% |  |  |  |
| CCN1CCN(Cc2ccc(NC(=O)c3ccc(C)c(/C=C/c4cnc5[nH]ccc5c4Cl)c3)cc2C(F)(F)F)CC1 [HG-6-63-01, (E)-3-(2-(4-chloro-1H-pyrrolo[2,3-b]pyridin-5-yl)vinyl)-N-(4-((4-ethylpiperazin-1-yl)methyl)-3-(trifluoromethyl)phenyl)-4-methylbenzamide] | 32% | 0.75% | 5.5% | 0.2% | 0.75% |  |  | 4.2% | 12% | 5.5% |  |
| CCN1CCN(Cc2ccc(NC(=O)c3ccc(C)c(C#Cc4cccnc4)c3)cc2C(F)(F)F)CC1 [XMD15-44] | 21% | 0% | 9.8% | 0% | 0% | 3% |  | 2.6% |  |  | 0.4% |
